Where a name gives a salt, the structure may show the parent alone.

For data set [1] the following is noted: during tablet manufacture and storage.
Excerpt: The chiral purity might be determined by analyzing a sample of dexpramipexole, or a pharmaceutically acceptable salt thereof, by high performance liquid chromatography (HPLC).
For the next data set, the system named is dopamine receptors. Conditions: cited from earlier work.
The next data set deals with eosinophils. The note with it: human blood and tissues; cited from earlier work.

`CCCN[C@@H]1CCc2nc(N)sc2C1` [dexpramipexole dihydrochloride monohydrate]: in data set [1], the “chiral purity over time” value is recorded as “did not change over time”.
For the compound `CCCN[C@@H]1CCc2nc(N)sc2C1` [dexpramipexole, (6R)-2-amino-4,5,6,7-tetrahydro-6-(propylamino)benzothiazole], in the data set with dopamine receptors, the “affinity for dopamine receptors compared to pramipexole” value is “greatly reduced”. Moreover, in the data set with eosinophils, the “effect on eosinophil counts” value was “selectively and significantly lower eosinophil counts”.

Values taken from US20250213489A1, “OSMOTIC TABLETS OF DEXPRAMIPEXOLE AND METHODS OF MANUFACTURING AND USE THEREOF” (Areteia Therapeutics, Inc., priority 2023, published 2025).
